Experimental data: the NIST ThermoML archive (doi:10.1016/j.jct.2019.04.023)

How the values were obtained:
[1] = 101 kPa, Liquid; for viscosity: Falling or rolling sphere viscometry; for mass density: Vibrating tube method
[2] = xn = mol fraction of the nth substance listed; details: 101 kPa, Liquid, x2 = 0; for viscosity: Falling or rolling sphere viscometry; for mass density: Vibrating tube method

CC[N+](CC)=C(N(C)C)N(C)C.O=S(=O)([N-]S(=O)(=O)C(F)(F)F)C(F)(F)F
[1]
Details	mass density [kg/m3]	viscosity [mPa·s]
293.15 K	1377.86	81.02
298.15 K	1373.16	65.01
303.15 K	1368.51	52.96
308.15 K	1363.9	43.84
313.15 K	1359.32	36.79
318.15 K	1354.76	31.25
323.15 K	1350.21	26.79

CCO [ethanol]
[1]
Details	mass density [kg/m3]	viscosity [mPa·s]
293.15 K	789.53	1.177
298.15 K	785.25	1.074
303.15 K	780.93	0.977
308.15 K	776.58	0.888
313.15 K	772.19	0.819
318.15 K	767.75	0.753
323.15 K	763.27	0.697

CCO [ethanol] + CC[N+](CC)=C(N(C)C)N(C)C.O=S(=O)([N-]S(=O)(=O)C(F)(F)F)C(F)(F)F
[2]
Details	mass density [kg/m3]	viscosity [mPa·s]
293.15 K	789.53	1.177
298.15 K	785.25	1.074
303.15 K	780.93	0.977
308.15 K	776.58	0.888
313.15 K	772.19	0.819
318.15 K	767.75	0.753
323.15 K	763.27	0.697

CO [methanol]
[1]
Details	mass density [kg/m3]	viscosity [mPa·s]
293.15 K	791.3	0.584
298.15 K	786.6	0.552
303.15 K	781.87	0.524
308.15 K	777.12	0.49
313.15 K	772.34	0.459
318.15 K	767.52	0.439
323.15 K	762.67	0.417

CO [methanol] + CC[N+](CC)=C(N(C)C)N(C)C.O=S(=O)([N-]S(=O)(=O)C(F)(F)F)C(F)(F)F
[2]
Details	mass density [kg/m3]	viscosity [mPa·s]
293.15 K	791.3	0.584
298.15 K	786.6	0.552
303.15 K	781.87	0.524
308.15 K	777.12	0.49
313.15 K	772.34	0.459
318.15 K	767.52	0.439
323.15 K	762.67	0.417
